Test system: 233499-124-R-J3-PDC complex spheroid viability, % test/control
Test: Anticancer human tumor 233499-124-R-J3-PDC patient-derived colon adenocarcinoma cell line growth inhibition
Details: for IC50: curve of first compound; for viability, T/C: stronger effect = lower value
Procedure, shortened: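 Drug combinations with the LSD1 inhibitor iadademstat tested on tumor cells co-cultured as spheroids with endothelial cells and mesenchymal stem cells. Concentrations descended in half-log increments from clinical Cmax or 10 microM.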

[1] = second compound 0.1 µM, first compound 0.00949 µM
[2] = second compound 0.1 µM, first compound 0.03 µM
[3] = second compound 0.1 µM, first compound 0.0949 µM
[4] = second compound 0.1 µM, first compound 0.3 µM
[5] = second compound 0.1 µM, first compound 0.949 µM
[6] = second compound 0.1 µM, first compound 3 µM
[7] = second compound 0.316 µM, first compound 0.00949 µM
[8] = second compound 0.316 µM, first compound 0.03 µM
[9] = second compound 0.316 µM, first compound 0.0949 µM
[10] = second compound 0.316 µM, first compound 0.3 µM
[11] = second compound 0.316 µM, first compound 0.949 µM
[12] = second compound 0.316 µM, first compound 3 µM
[13] = second compound 1 µM, first compound 0.00949 µM
[14] = second compound 1 µM, first compound 0.03 µM
[15] = second compound 1 µM, first compound 0.0949 µM
[16] = second compound 1 µM, first compound 0.3 µM
[17] = second compound 1 µM, first compound 0.949 µM
[18] = second compound 1 µM, first compound 3 µM
[19] = second compound 3.16 µM, first compound 0.00949 µM
[20] = second compound 3.16 µM, first compound 0.03 µM
[21] = second compound 3.16 µM, first compound 0.0949 µM
[22] = second compound 3.16 µM, first compound 0.3 µM
[23] = second compound 3.16 µM, first compound 0.949 µM
[24] = second compound 3.16 µM, first compound 3 µM
[25] = second compound 10 µM, first compound 0.00949 µM
[26] = second compound 10 µM, first compound 0.03 µM
[27] = second compound 10 µM, first compound 0.0949 µM
[28] = second compound 10 µM, first compound 0.3 µM
[29] = second compound 10 µM, first compound 0.949 µM
[30] = second compound 10 µM, first compound 3 µM
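Further: spheroids exposed to agents for one week before readout.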

Nc1ccccc1NC(=O)c1ccc(CNC(=O)OCc2cccnc2)cc1 + NC1CCC(NC2CC2c2ccccc2)CC1
IC50 (second compound 0.1 µM): 0.476 µM
IC50 (second compound 0.316 µM): 0.579 µM
IC50 (second compound 1 µM): 0.523 µM
IC50 (second compound 3.16 µM): 0.525 µM
IC50 (second compound 10 µM): 0.463 µM
viability, T/C [1]: 112%
viability, T/C [2]: 93.4%
viability, T/C [3]: 106%
viability, T/C [4]: 65.8%
viability, T/C [5]: 24%
viability, T/C [6]: 2.31%
viability, T/C [7]: 92.2%
viability, T/C [8]: 91.8%
viability, T/C [9]: 101%
viability, T/C [10]: 91.2%
viability, T/C [11]: 19.1%
viability, T/C [12]: 5.83%
viability, T/C [13]: 81.9%
viability, T/C [14]: 99.9%
viability, T/C [15]: 92%
viability, T/C [16]: 88.4%
viability, T/C [17]: 8.94%
viability, T/C [18]: 4.76%
viability, T/C [19]: 78.8%
viability, T/C [20]: 89.5%
viability, T/C [21]: 76.7%
viability, T/C [22]: 82.1%
viability, T/C [23]: 16.5%
viability, T/C [24]: 4.56%
viability, T/C [25]: 74.8%
viability, T/C [26]: 92.3%
viability, T/C [27]: 75.2%
viability, T/C [28]: 73.4%
viability, T/C [29]: 11.5%
viability, T/C [30]: 3.56%

O=C(C=Cc1cccc(S(=O)(=O)Nc2ccccc2)c1)NO + NC1CCC(NC2CC2c2ccccc2)CC1
IC50 (second compound 0.1 µM): > 3 µM
IC50 (second compound 0.316 µM): > 3 µM
IC50 (second compound 1 µM): 3 µM
IC50 (second compound 3.16 µM): > 3 µM
IC50 (second compound 10 µM): 3 µM
viability, T/C [1]: 105%
viability, T/C [2]: 115%
viability, T/C [3]: 122%
viability, T/C [4]: 134%
viability, T/C [5]: 51.9%
viability, T/C [6]: 110%
viability, T/C [7]: 101%
viability, T/C [8]: 108%
viability, T/C [9]: 128%
viability, T/C [10]: 120%
viability, T/C [11]: 47.7%
viability, T/C [12]: 106%
viability, T/C [13]: 81.3%
viability, T/C [14]: 105%
viability, T/C [15]: 108%
viability, T/C [16]: 109%
viability, T/C [17]: 44.7%
viability, T/C [18]: 78.8%
viability, T/C [19]: 101%
viability, T/C [20]: 101%
viability, T/C [21]: 102%
viability, T/C [22]: 116%
viability, T/C [23]: 38.5%
viability, T/C [24]: 89.3%
viability, T/C [25]: 79.2%
viability, T/C [26]: 85.5%
viability, T/C [27]: 78.8%
viability, T/C [28]: 117%
viability, T/C [29]: 32.9%
viability, T/C [30]: 76.3%

O=C(c1cc(Cc2n[nH]c(=O)c3ccccc23)ccc1F)N1CCN(C(=O)C2CC2)CC1 + NC1CCC(NC2CC2c2ccccc2)CC1
IC50 (second compound 0.1 µM): > 10 µM
IC50 (second compound 0.316 µM): > 10 µM
IC50 (second compound 1 µM): > 10 µM
IC50 (second compound 3.16 µM): > 10 µM
IC50 (second compound 10 µM): > 10 µM
viability, T/C (second compound 0.1 µM, first compound 0.0316 µM): 101%
viability, T/C (second compound 0.1 µM, first compound 0.1 µM): 107%
viability, T/C (second compound 0.1 µM, first compound 0.316 µM): 102%
viability, T/C (second compound 0.1 µM, first compound 1 µM): 102%
viability, T/C (second compound 0.1 µM, first compound 3.16 µM): 91.7%
viability, T/C (second compound 0.1 µM, first compound 10 µM): 81.6%
viability, T/C (second compound 0.316 µM, first compound 0.0316 µM): 109%
viability, T/C (second compound 0.316 µM, first compound 0.1 µM): 102%
viability, T/C (second compound 0.316 µM, first compound 0.316 µM): 90.5%
viability, T/C (second compound 0.316 µM, first compound 1 µM): 92.3%
viability, T/C (second compound 0.316 µM, first compound 3.16 µM): 85.6%
viability, T/C (second compound 0.316 µM, first compound 10 µM): 97.3%
viability, T/C (second compound 1 µM, first compound 0.0316 µM): 94.5%
viability, T/C (second compound 1 µM, first compound 0.1 µM): 83.3%
viability, T/C (second compound 1 µM, first compound 0.316 µM): 71.1%
viability, T/C (second compound 1 µM, first compound 1 µM): 81.3%
viability, T/C (second compound 1 µM, first compound 3.16 µM): 86.1%
viability, T/C (second compound 1 µM, first compound 10 µM): 95%
viability, T/C (second compound 3.16 µM, first compound 0.0316 µM): 82.7%
viability, T/C (second compound 3.16 µM, first compound 0.1 µM): 90.5%
viability, T/C (second compound 3.16 µM, first compound 0.316 µM): 84.8%
viability, T/C (second compound 3.16 µM, first compound 1 µM): 75.3%
viability, T/C (second compound 3.16 µM, first compound 3.16 µM): 87.1%
viability, T/C (second compound 3.16 µM, first compound 10 µM): 79.5%
viability, T/C (second compound 10 µM, first compound 0.0316 µM): 79.4%
viability, T/C (second compound 10 µM, first compound 0.1 µM): 68.2%
viability, T/C (second compound 10 µM, first compound 0.316 µM): 67.8%
viability, T/C (second compound 10 µM, first compound 1 µM): 69.2%
viability, T/C (second compound 10 µM, first compound 3.16 µM): 79.6%
viability, T/C (second compound 10 µM, first compound 10 µM): 69%

— PubChem BioAssay AID1918930 (Molecular Pharmacology Branch, DTP, NCI, 2023)
